# According to patent US12630510B2, “EP2 antagonist” (ONO PHARMACEUTICAL CO., LTD., priority 2019, dated 2026):
# Molecular target: T1, human EP2 receptor (Homo sapiens, UniProt P43116)
# T1 construct: expressed in transfected cells; host or cells: CHO cells
# Experiment: Experiment of measuring EP2 antagonistic activity using cells expressing prostanoid receptor (cAMP)
# Format: cell-based
# Conditions: CHO cells expressing human EP2 receptor; PGE2 10 nmol/L; cAMP quantified after 1 hour at room temperature; read-out: EP2_IC50
# Method: CHO cells on each of which a human EP2 receptor had been expressed were prepared in accordance with the method by Nishigaki et al, (FEBS Letters, vol. 364, pp. 339-341, 1995) and were then cryopreserved in CELLBANKER2 (Nippon Zenyaku Kogyo Co., Ltd.) at a concentration of 1.5×10^7 cells/mL/vial. The CHO cells thus prepared were used in the experiment. The cells were thawed, and were then suspended in an assay medium (D-PBS containing 1 mmol/L IBMX, 2 μmol/L Diclofenac) at a concentration of 5×10^5 cells/mL. PGE2 alone having a final concentration of 10 nmol/L or a solution (10 μL) containing the PGE2 and a test compound was added to the cell suspension (10 μL) to initiate the reaction. After the reaction was performed at room temperature for 1 hour, the amount of cAMP in the cells was quantified in accordance with the method described in cAMP Gs Dynamic kit (CISBIO).
# The antagonistic activity (IC50 value) of a test compound was calculated as a percentage of suppression of the reaction at 10 nM, which was a concentration at which a submaximal cAMP production activity was observed when PGE2 alone was employed. In this manner, an IC50 value was determined.
# T1 sequence (P43116 whole entry): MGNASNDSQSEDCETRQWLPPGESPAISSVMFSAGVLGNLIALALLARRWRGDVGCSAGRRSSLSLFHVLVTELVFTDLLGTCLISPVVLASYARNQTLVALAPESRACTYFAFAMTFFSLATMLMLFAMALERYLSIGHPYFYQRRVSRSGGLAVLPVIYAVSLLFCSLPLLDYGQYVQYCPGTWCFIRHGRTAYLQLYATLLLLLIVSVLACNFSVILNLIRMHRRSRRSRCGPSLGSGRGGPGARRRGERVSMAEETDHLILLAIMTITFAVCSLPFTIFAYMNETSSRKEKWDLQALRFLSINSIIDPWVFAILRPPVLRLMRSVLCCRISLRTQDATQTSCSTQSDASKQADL
row,Structure (SMILES),IC50
1,"CC(C)c1cc(OCc2ccccc2)ccc1C(=O)Nc1cc([C@H]2C[C@H]2C(=O)O)ccc1C(F)(F)F [Example 28, (1R,2S)-2-[3-{[4-(Benzyloxy)-2-isopropylbenzoyl]amino}-4-(trifluoromethyl)phenyl]cyclopropanecarboxylic acid]",4 nM
2,"Cc1cc(OCCc2cnn(C)c2)cc(C)c1C(=O)Nc1cc([C@H]2C[C@H]2C(=O)O)ccc1C(F)(F)F [Example 20, (1R,2S)-2-[3-({2,6-Dimethyl-4-[2-(1-methyl-1H-pyrazol-4-yl)ethoxy]benzoyl}amino)-4-(trifluoromethyl)phenyl]cyclopropanecarboxylic acid]",28 nM
3,"Cc1cc(OCCc2ccc(F)cc2F)cc(C)c1C(=O)Nc1cc([C@H]2C[C@H]2C(=O)O)ccc1C(F)(F)F [Example 13, (1R,2S)-2-[3-({4-[2-(2,4-Difluorophenyl)ethoxy]-2,6-dimethylbenzoyl}amino)-4-(trifluoromethyl)phenyl]cyclopropanecarboxylic acid]",4.7 nM
4,"CC(C)c1nn(CCCc2ccccc2)cc1C(=O)Nc1cc([C@H]2C[C@H]2C(=O)O)ccc1C(F)(F)F [Example 31-1, (1R,2S)-2-[3-({[3-Isopropyl-1-(3-phenylpropyl)-1H-pyrazol-4-yl]carbonyl}amino)-4-(trifluoromethyl)phenyl]cyclopropanecarboxylic acid]",8.9 nM
5,"CCC(C)n1c(CCCc2ccccc2)ccc1C(=O)Nc1cc([C@H]2C[C@H]2C(=O)O)ccc1C(F)(F)F (relative stereo) [Example 1, rel-(1R,2S)-2-[3-({[1-sec-Butyl-5-(3-phenylpropyl)-1H-pyrrole-2-carbonyl]amino)-4-(trifluoromethyl)phenyl]cyclopropanecarboxylic acid]",< 0.3 nM
6,"Cc1cc(OCCc2ccccc2)cc(C)c1C(=O)Nc1cc([C@H]2C[C@H]2C(=O)O)ccc1C(F)(F)F (racemic) [Example 11, rel-(1R,2S)-2-[3-{[2,6-Dimethyl-4-(2-phenylethoxy)benzoyl]amino}-4-(trifluoromethyl)phenyl]cyclopropanecarboxylic acid]",2.2 nM
7,"Cc1cc(OCCc2ccccc2)cc(C)c1C(=O)Nc1cc([C@H]2C[C@H]2C(=O)O)c(Cl)cc1C(F)(F)F [Example 15, (1R,2S)-2-[2-Chloro-5-{[2,6-dimethyl-4-(2-phenylethoxy)benzoyl]amino}-4-(trifluoromethyl)phenyl]cyclopropanecarboxylic acid]",< 0.3 nM
8,"Cc1cc(OCCC2CC2)cc(C)c1C(=O)Nc1cc([C@H]2C[C@H]2C(=O)O)ccc1C(F)(F)F [Example 20-1, (1R,2S)-2-[3-{[4-(2-Cyclopropylethoxy)-2,6-dimethylbenzoyl]amino}-4-(trifluoromethyl)phenyl]cyclopropanecarboxylic acid]",5 nM
9,"CC[C@H](C)n1c(CCOCc2ccccc2)ccc1C(=O)Nc1cc([C@H]2C[C@H]2C(=O)O)ccc1C(F)(F)F [Example 8, (1R,2S)-2-{3-[({5-[2-(Benzyloxy)ethyl]-1-[(2S)-2-butanyl]-1H-pyrrol-2-yl}carbonyl)amino]-4-(trifluoromethyl)phenyl}cyclopropanecarboxylic acid]",0.4 nM
10,"CC[C@H](C)n1c(CCCc2ccccc2)ccc1C(=O)Nc1cc(C)cc([C@H]2C[C@H]2C(=O)O)c1 (relative stereo) [Example 2-1, rel-(1R,2S)-2-{3-[({1-[(2S)-2-Butanyl]-5-(3-phenylpropyl)-1H-pyrrol-2-yl}carbonyl)amino]-5-methylphenyl}cyclopropanecarboxylic acid]",5.4 nM
11,"CC[C@H](C)n1c(CCCc2ccccc2)ccc1C(=O)Nc1cc([C@H]2C[C@H]2C(=O)O)ccc1Cl [Example 7, (1R,2S)-2-{3-[({1-[(2S)-2-Butanyl]-5-(3-phenylpropyl)-1H-pyrrol-2-yl}carbonyl)amino]-4-chlorophenyl}cyclopropanecarboxylic acid]",0.3 nM
12,"Cc1cc(CCCc2ccccc2)cc(C)c1C(=O)Nc1cc([C@H]2C[C@H]2C(=O)O)ccc1C(F)(F)F [Example 12, (1R,2S)-2-[3-{[2,6-Dimethyl-4-(3-phenylpropyl)benzoyl]amino}-4-(trifluoromethyl)phenyl]cyclopropanecarboxylic acid]",1 nM
13,"CC[C@H](C)n1c(CCOc2cc(F)nc(Cl)c2)ccc1C(=O)Nc1cc([C@H]2C[C@H]2C(=O)O)ccc1C(F)(F)F [Example 10, (1R,2S)-2-[3-{[(1-[(2S)-2-Butanyl]-5-{2-[(2-chloro-6-fluoro-4-pyridinyl)oxy]ethyl}-1H-pyrrol-2-yl)carbonyl]amino}-4-(trifluoromethyl)phenyl]cyclopropanecarboxylic acid]",0.3 nM
14,"CC[C@H](C)n1c(CCCc2ccccc2)ccc1C(=O)Nc1cc(C)cc([C@@H]2C[C@H]2C(=O)O)c1 (relative stereo) [Example 2-2, rel-(1R,2R)-2-{3-[({1-[(2S)-2-Butanyl]-5-(3-phenylpropyl)-1H-pyrrol-2-yl}carbonyl)amino]-5-methylphenyl}cyclopropanecarboxylic acid]",33 nM
15,"Cc1cc(OCCc2ccccc2)cc(C)c1C(=O)Nc1cc([C@H]2C[C@@]2(C)C(=O)O)ccc1C(F)(F)F [Example 26, (1R,2R)-2-[3-{[2,6-Dimethyl-4-(2-phenylethoxy)benzoyl]amino}-4-(trifluoromethyl)phenyl]-1-methylcyclopropanecarboxylic acid]",27 nM
16,"CC[C@H](C)n1c(CCCc2ccccc2)ccc1C(=O)Nc1cc([C@H]2C[C@H]2C(=O)O)ccc1C(F)(F)F (relative stereo) [Example 2, rel-(1R,2S)-2-{3-[({1-[(2S)-2-Butanyl]-5-(3-phenylpropyl)-1H-pyrrol-2-yl}carbonyl)amino]-4-(trifluoromethyl)phenyl}cyclopropanecarboxylic acid]",1.6 nM
17,"Cc1cc(OCCc2ccccc2)cc(C)c1C(=O)Nc1cc(CCC(=O)O)ccc1C(F)(F)F [Example 24, 3-[3-f{[2,6-Dimethyl-4-(2-phenylethoxy)benzoyl]amino}-4-(trifluoromethyl)phenyl]propanoic acid]",5.2 nM
18,"CC[C@H](C)n1c(CCCc2ccccc2)ccc1C(=O)Nc1cc([C@H]2C[C@H]2C(=O)O)ccc1OC [Example 4, (1R,2S)-2-{3-[({1-[(2S)-2-Butanyl]-5-(3-phenylpropyl)-1H-pyrrol-2-yl}carbonyl)amino]-4-methoxyphenyl}cyclopropanecarboxylic acid]",2.6 nM
19,"CC[C@H](C)n1c(CCCc2ccccc2)ccc1C(=O)Nc1cc([C@H]2C[C@H]2C(=O)O)ccc1C(F)(F)F [Example 6, (1R,2S)-2-{3-[({1-[(2S)-2-Butanyl]-5-(3-phenylpropyl)-1H-pyrrol-2-yl}carbonyl)amino]-4-(trifluoromethyl)phenyl}cyclopropanecarboxylic acid]",< 0.3 nM
20,"Cc1cc(Oc2cncc(Cl)n2)cc(C)c1C(=O)Nc1cc([C@H]2C[C@H]2C(=O)O)ccc1C(F)(F)F [Example 21, (1R,2S)-2-[3-({4-[(6-Chloro-2-pyrazinyl)oxy]-2,6-dimethylbenzoyl}amino)-4-(trifluoromethyl)phenyl]cyclopropanecarboxylic acid]",8.1 nM
21,"Cc1cc(OCCc2ccccc2)cc(C)c1C(=O)Nc1cc(C(C)CC(=O)O)ccc1C(F)(F)F (stereo not drawn) [Example 24-1, 3-[3-{[2,6-Dimethyl-4-(2-phenylethoxy)benzoyl]amino}-4-(trifluoromethyl)phenyl]butanoic acid]",20 nM
